# Data reported in US20100209345A1, “Fluorinated Ligands for Targeting Peripheral Benzodiazepine Receptors” (Australian Nuclear Science & Technology Organisation, priority 2006, published 2010).
# Key:
# [1] = system: central benzodiazepine receptors; assay: In vitro binding, [3H]-Flumazenil, brain cortex membrane preparation; settings: @ 10^−5M, [3H]-Flumazenil
# Protocol: Non-specific binding was determined with Flumazenil (20 μM). In both cases, incubations were terminated by rapid filtration through Whatman GF/B glass fibre. Filters were immediately washed 3 times with 5 mL ice-cold 50 mM Tris/HCl at pH 7.4. Filters were counted in a β-scintillation counter (Packard) to measure the amount of bound radioactivity. The IC50 of the compounds for the peripheral benzodiazepine binding site and the central benzodiazepine receptor were calculated using Kell 6 software.
# [2] = target: T1, peripheral benzodiazepine receptors (Rattus norvegicus, UniProt P16257); assay: In vivo blocking / competition of tracer uptake by pre-treatment with PBR and CBR ligands; settings: rats; for Tracer uptake after pre-treatment with PK 11195 / Tracer uptake after pre-treatment with Ro 5-4864: PBR-expressing tissues (brain/peripheral organs, adrenals apart); for Tracer uptake after pre-treatment with flumazenil (central benzodiazepine ligand): flumazenil 1 mg/kg 5 min prior to tracer, brain or peripheral organs
# T1 construct: high uptake in the tissues which have known PBR sites; from tissue; host or cells: organs of living SD rats (brain and peripheral tissues), in vivo
# Protocol: The criteria for significance were **p<0.01 (highly significant) and *p<0.05 (significant). No stars implies not statistical difference from normals or controls.
# (§1) The biodistribution of PBR132* was undertaken in SD rats and analysis up to 4 h p.i. in the brain and peripheral tissues was performed. The specificity and selectivity of the tracer were assessed by pre-treatment with PBR and Central benzodiazepine receptor (CBR) specific ligands (1 mg/kg) 5 min prior to injection of PBR132*.
# (§2) The biodistribution of PBR 147* was performed in SD rats and brain and peripheral tissues were analysised at 15, 30 min, 1, and 4 h p.i. The specificity and selectivity of the tracer was assessed by pre-treatment of the animals with the PBR ligands PK11195 and Ro 5-4864 and with Flumazenil for CBR at 1 mg/kg 5 min prior to injection of PBR 147*
# (§3) The biodistribution of PBR102* and PBR111* were performed in SD rats and brain and peripheral tissues analysed at 15, 30 min, 1, and 4 h p.i. The specificity and selectivity of the tracers were assessed by pre-treatment with the PBR ligands PK11195 and Ro 5-4864 and with Flumazenil for CBR at 1 mg/kg 5 min prior to injection of the corresponding tracers.
# (§4) The specificity and selectivity of the tracers were assessed by pre-treatment with the PBR ligands PK11195 and Ro 5-4864 and with Flumazenil for CBR at 1 mg/kg 5 min prior to injection of the corresponding tracers.
# [3] = Biodistribution of 18F-labelled tracers in rats; type: in vivo
# Protocol: [^18F]Fluoride, in the form of H^18F, was produced by the ^18O(p,n)^18F nuclear reaction by bombardment of ^18O-enriched water target. The aqueous [^18F]fluoride solution was added to a 2.5-mL wheaton vial containing dry acetonitrile (1 mL), Kryptofix 2.2.2 (5 mg, 13.3 μmol) and potassium carbonate (2 mg, 14.5 μmol). The solvent was evaporated under a stream of nitrogen at 90° C. with a reducing vacuum. This azeotropic drying was repeated twice by further addition of acetonitrile (2×1 mL). The tosylate precursor 2-(2-(4-(2-tosylethoxy)phenyl)-6-chloroimidazo[1,2-a]pyridin-3-yl)-N,N-diethylacetamide (2 mg, 3.6 μmol) was dissolved in acetonitrile (1 ml) and added to the dried K222.K2CO3.KF complex. Stirring and heating at 90° C. continued for 10 to 15 mins before the reaction mixture was diluted with mobile phase and purified by reverse phase HPLC on an Alltech Alltima, C18, 10μ, 250×22 mm column eluting at 10 mLs/min with 45% acetonitrile, 55% water with 0.1% TFA.
# as §1, §2, §3, §4
# [4] = SD rats, 15 min, decay correction not stated
# [5] = SD rats, 4 hours, decay correction not stated
# [6] = rats, 15 min, corrected for decay of 18F
# [7] = rats, 30 min, corrected for decay of 18F
# [8] = rats, 60 min, corrected for decay of 18F
# [9] = rats, 4 hours, corrected for decay of 18F
smiles,measurement,setting,value
"CCN(CC)C(=O)Cc1c(-c2ccc(OCCCF)cc2)nn2c(C)cc(C)nc12 [PBR 146, 2-(2-(4-(3-fluoropropoxy)phenyl)-5,7-dimethylpyrazolo[1,5-a]pyrimidin-3-yl)-N,N-diethylacetamide]",chromatographic logP,LogP HPLC,3.16 ± 0.1
same,"CBR, % @ 10^−5M",[1],50% @ 10^−5M
"CCN(CC)C(=O)Cc1c(-c2ccc(C(C)(C)C)cc2)nc2ccc([18F])nn12 [PBR132*, 2-(2-(4-tert-butylphenyl)-6-fluoroimidazo[1,2-b]pyridazin-3-yl)-N,N-diethylacetamide]",Tracer uptake after pre-treatment with PK 11195,[2]; PK 11195 1 mg/kg 5 min prior to tracer,decreased
same,Tracer uptake after pre-treatment with PK 11195,"[2]; PK 11195 1 mg/kg 5 min prior to tracer, listed as [^18F]PBR132",blocking effect
same,Tracer uptake in the adrenals after pre-treatment with PK 11195,"[2]; PK 11195 1 mg/kg 5 min prior to tracer, adrenals",increase
same,Tracer uptake after pre-treatment with Ro 5-4864,[2]; Ro 5-4864 1 mg/kg 5 min prior to tracer,decreased
same,Tracer uptake after pre-treatment with Ro 5-4864,"[2]; Ro 5-4864 1 mg/kg 5 min prior to tracer, listed as [^18F]PBR132",blocking effect
same,Tracer uptake in the adrenals after pre-treatment with Ro 5-4864,"[2]; Ro 5-4864 1 mg/kg 5 min prior to tracer, adrenals",increase
same,Tracer uptake after pre-treatment with flumazenil (central benzodiazepine ligand),[2],no effect
same,Tracer uptake after pre-treatment with flumazenil (central benzodiazepine ligand),[2]; listed as [^18F]PBR132,does not reduce
same,Tracer uptake after pre-treatment with the non-radioactive analogue,"[2]; non-radioactive analogue 1 mg/kg, PBR-expressing tissues",blocking effect
same,Biodistribution: Bone,[3]; [4],1 % ID/g
same,Biodistribution: Heart,[3]; [4],8 % ID/g
same,Biodistribution: Kidney,[3]; [4],4 % ID/g
same,Biodistribution: Lungs,[3]; [4],16 % ID/g
same,Biodistribution: Olfactory bulbs,[3]; [4],0.63 % ID/g
same,Biodistribution: Adrenals,"[3]; SD rats, 30 min, decay correction not stated",13 % ID/g
same,Biodistribution: Bone,[3]; [5],3.3 % ID/g
same,Biodistribution: Heart,[3]; [5],less than 2.3 % ID/g
same,Biodistribution: Kidney,[3]; [5],less than 2.3 % ID/g
same,Biodistribution: Lungs,[3]; [5],less than 2.3 % ID/g
same,Biodistribution: Olfactory bulbs,[3]; [5],0.25 % ID/g
same,Blood activity level / concentration in the blood over the 4 h study period,"[3]; SD rats, throughout 15 min to 4 h",low
same,Biodistribution: Adrenals,[3]; [6],10.03 ± 1.11 % ID/g
same,Biodistribution: Bladder,[3]; [6],0.73 ± 0.33 % ID/g
same,Biodistribution: Blood,[3]; [6],0.41 ± 0.05 % ID/g
same,Biodistribution: Bone,[3]; [6],1.04 ± 0.14 % ID/g
same,Biodistribution: Brain,[3]; [6],0.35 ± 0.03 % ID/g
same,Biodistribution: GIT,[3]; [6],1.08 ± 0.08 % ID/g
same,Biodistribution: Heart,[3]; [6],8.13 ± 0.77 % ID/g
same,Biodistribution: Kidney,[3]; [6],4.10 ± 0.28 % ID/g
same,Biodistribution: Liver,[3]; [6],1.22 ± 0.17 % ID/g
same,Biodistribution: Lungs,[3]; [6],16.09 ± 2.56 % ID/g
same,Biodistribution: Muscle,[3]; [6],0.89 ± 0.28 % ID/g
same,Biodistribution: Olfactory bulbs,[3]; [6],0.63 ± 0.09 % ID/g
same,Biodistribution: Pancreas,[3]; [6],2.01 ± 0.26 % ID/g
same,Biodistribution: Skin,[3]; [6],0.60 ± 0.09 % ID/g
same,Biodistribution: Spleen,[3]; [6],5.85 ± 0.93 % ID/g
same,Biodistribution: Stomach,[3]; [6],0.58 ± 0.19 % ID/g
same,Biodistribution: Testes,[3]; [6],0.31 ± 0.03 % ID/g
same,Biodistribution: Thymus,[3]; [6],0.78 ± 0.20 % ID/g
same,Biodistribution: Thyroid,[3]; [6],8.87 ± 1.06 % ID/g
same,Biodistribution: Adrenals,[3]; [7],13.21 ± 1.16 % ID/g
same,Biodistribution: Bladder,[3]; [7],0.87 ± 0.36 % ID/g
same,Biodistribution: Blood,[3]; [7],0.32 ± 0.05 % ID/g
same,Biodistribution: Bone,[3]; [7],1.25 ± 0.18 % ID/g
same,Biodistribution: Brain,[3]; [7],0.23 ± 0.02 % ID/g
same,Biodistribution: GIT,[3]; [7],1.36 ± 0.22 % ID/g
same,Biodistribution: Heart,[3]; [7],8.34 ± 0.86 % ID/g
same,Biodistribution: Kidney,[3]; [7],3.94 ± 0.54 % ID/g
same,Biodistribution: Liver,[3]; [7],1.18 ± 0.33 % ID/g
same,Biodistribution: Lungs,[3]; [7],11.58 ± 2.11 % ID/g
same,Biodistribution: Muscle,[3]; [7],0.91 ± 0.10 % ID/g
same,Biodistribution: Olfactory bulbs,[3]; [7],0.46 ± 0.11 % ID/g
same,Biodistribution: Pancreas,[3]; [7],1.97 ± 0.32 % ID/g
same,Biodistribution: Skin,[3]; [7],0.65 ± 0.08 % ID/g
same,Biodistribution: Spleen,[3]; [7],6.89 ± 0.80 % ID/g
same,Biodistribution: Stomach,[3]; [7],0.64 ± 0.11 % ID/g
same,Biodistribution: Testes,[3]; [7],0.31 ± 0.03 % ID/g
same,Biodistribution: Thymus,[3]; [7],0.80 ± 0.06 % ID/g
same,Biodistribution: Thyroid,[3]; [7],9.15 ± 0.87 % ID/g
same,Biodistribution: Adrenals,[3]; [8],11.24 ± 2.03 % ID/g
same,Biodistribution: Bladder,[3]; [8],0.84 ± 0.08 % ID/g
same,Biodistribution: Blood,[3]; [8],0.17 ± 0.00 % ID/g
same,Biodistribution: Bone,[3]; [8],2.06 ± 0.10 % ID/g
same,Biodistribution: Brain,[3]; [8],0.12 ± 0.00 % ID/g
same,Biodistribution: GIT,[3]; [8],1.78 ± 0.04 % ID/g
same,Biodistribution: Heart,[3]; [8],6.87 ± 0.53 % ID/g
same,Biodistribution: Kidney,[3]; [8],3.24 ± 0.15 % ID/g
same,Biodistribution: Liver,[3]; [8],0.67 ± 0.06 % ID/g
same,Biodistribution: Lungs,[3]; [8],6.40 ± 0.50 % ID/g
same,Biodistribution: Muscle,[3]; [8],0.50 ± 0.03 % ID/g
same,Biodistribution: Olfactory bulbs,[3]; [8],0.36 ± 0.05 % ID/g
same,Biodistribution: Pancreas,[3]; [8],1.20 ± 0.19 % ID/g
same,Biodistribution: Skin,[3]; [8],0.64 ± 0.07 % ID/g
same,Biodistribution: Spleen,[3]; [8],5.56 ± 0.67 % ID/g
same,Biodistribution: Stomach,[3]; [8],0.47 ± 0.05 % ID/g
same,Biodistribution: Testes,[3]; [8],0.32 ± 0.01 % ID/g
same,Biodistribution: Thymus,[3]; [8],0.88 ± 0.07 % ID/g
same,Biodistribution: Thyroid,[3]; [8],18.30 ± 1.00 % ID/g
same,Biodistribution: Adrenals,[3]; [9],13.51 ± 0.61 % ID/g
same,Biodistribution: Bladder,[3]; [9],0.99 ± 0.30 % ID/g
same,Biodistribution: Blood,[3]; [9],0.07 ± 0.00 % ID/g
same,Biodistribution: Bone,[3]; [9],3.28 ± 0.65 % ID/g
same,Biodistribution: Brain,[3]; [9],0.07 ± 0.00 % ID/g
same,Biodistribution: GIT,[3]; [9],2.93 ± 0.39 % ID/g
same,Biodistribution: Heart,[3]; [9],4.71 ± 0.31 % ID/g
same,Biodistribution: Kidney,[3]; [9],2.31 ± 0.17 % ID/g
same,Biodistribution: Liver,[3]; [9],0.31 ± 0.03 % ID/g
same,Biodistribution: Lungs,[3]; [9],2.42 ± 0.25 % ID/g
same,Biodistribution: Muscle,[3]; [9],0.24 ± 0.06 % ID/g
same,Biodistribution: Olfactory bulbs,[3]; [9],0.25 ± 0.03 % ID/g
same,Biodistribution: Pancreas,[3]; [9],0.57 ± 0.10 % ID/g
same,Biodistribution: Skin,[3]; [9],0.67 ± 0.17 % ID/g
same,Biodistribution: Spleen,[3]; [9],2.64 ± 0.36 % ID/g
same,Biodistribution: Stomach,[3]; [9],0.72 ± 0.24 % ID/g
same,Biodistribution: Testes,[3]; [9],0.42 ± 0.06 % ID/g
same,Biodistribution: Thymus,[3]; [9],1.02 ± 0.06 % ID/g
same,Biodistribution: Thyroid,[3]; [9],7.41 ± 0.68 % ID/g
same,Uptake in tissues which have known PBR sites,"[3]; rats, in vivo biodistribution",high uptake
